The conditions of assay [1]: clinical trial, Zapolska-Downar et al. 2000; cited from earlier work.
Assay [2] concerns PPAR. Briefly: Effect of propionic acid on PPAR gene expression in vitro (semiquantitative RT-PCR in HUVEC). The class given is cell-based. The settings on record: PPAR mRNA in human endothelial cells, percent in relation to GAPDH mRNA (100%). As to the method: Human umbilical vein endothelial cells, HUVEC, were obtained from umbilical cords by collagenase digestion as described by Jaffe et al. (Biology of Endothelial Cells, Boston, Martinus Nijhoff Publishers, 1984, p. 1-13). In brief, veins of umbilical cords were perfused with PBS to remove blood cells, filled with 0.1% collagenase (type Ia) and left for 10 minutes at 37° C. Suspended HUvEC were supplemented with PBS, centrifuged and cultured at 37° C. in gelatine-coated 25 ml flasks and 6-well tissue culture plates filled with medium 199, under humidified 5% CO2 in room air. Propionic acid was added to the culture medium in the amounts of 0.1, 1.0, and 10.0 mmol/l, and the effect of the acid on the expression of PPAR was determined. Total RNA was extracted from the cells by the method of Chomczynski using TRIZOL (Gibco BRL). After isolation the integrity of the RNA samples was checked by gel electrophoresis in 1% agarose gel stained with ethidium bromide. The concentration of total RNA was calculated after spectrophotometric measurements at 260 nm wavelength. Each RNA sample (500 ng) was incubated with 1 U of DNAse I (Boehringer Mannheim, Germany) for 15 minutes at 37° C., and subsequently DNAse I was inactivated by heating at 75° C. for 3 minutes. Such DNAse-treated RNA (500 ng) was dissolved in 20 μl of a reaction mixture containing 2.5 mM of dATP, dTTP, dCTP, and dGTP (Progmega, USA), 20 U of RNAsin (Promega, USA), 100 pM of random hexamers (Boehringer Mannheim, Germany) and 20 U of MMLV Reverse Transcriptase (Boehringer Mannheim). Incubation was carried out at 37° C. for 60 minutes; the temperature of the reaction was then raised to 94° C. for 5 minutes to inactivate the enzyme and finally dropped to 4° C. […] The intensity of the bands was densitometrically measured with the gel analysis macro supplied with NIH Image. All PPAR signals were normalised to mRNA levels of the housekeeping gene GAPDH and expressed as a ratio. Data are expressed as percent in relation to GAPDH mRNA (100%).

Consider `CC(C)Cc1ccc(C(C)C(=O)O)cc1` (stereo not shown) [ibuprofen], for which the HDL cholesterol levels result in assay [1] was “increased”.
For `CCC(=O)O` [propionic acid], the results for the “Increase of mRNA, %” value in assay [2] (propionic acid 0.1 mmol/l), in assay [2] (propionic acid 1.0 mmol/l) and in assay [2] (propionic acid 10.0 mmol/l) were 29.3%, 47.2% and 89.7%, respectively.

Values taken from patent US20040048356A1, “Use of a strain of lactobacillus reducing the risk factors involved in the metabolic syndrome” (priority 2000, published 2004).
